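Cells were grown in 96-well plates and exposed to each compound for 48 hours at five concentrations; endpoints were interpolated linearly between bracketing concentrations, or set to the highest concentration if not reached. At the GI50, growth is halved.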 Calls of active or inactive are those of the source. No stated cut-off is given here; in the data, active = GI50 up to about 1.1 µM and inactive = higher. Where only a bound is given, the exact number is not on record here.

Common to all, as to experiment: DTP human tumour cell line panel, 48 h
Test [1] concerns RPMI-8226.
Test [2] has as its system SK-MEL-5.
Test [3] relates to HL-60.
The subject of test [4] is TK-10.
In test [5] the test system is MOLT-4.
The subject of test [6] is LOX IMVI.
In test [7] the test system is SR.
In test [8] the test system is SNB-19.
Test [9] deals with HCT-15.
The subject of test [10] is HOP-92.
Test [11] concerns SNB-75.
The test system of test [12] is OVCAR-5.
For test [13], the system named is DU-145.
Test [14] deals with Hs-578T.
The test system of test [15] is SK-OV-3.
Test [16] concerns OVCAR-4.
Test [17] deals with PC-3.

For `Cn1c(=O)[nH]c2[nH]c3ccccc3c2c1=O`, the GI50 – broadly, the concentration that inhibits growth by half – in test [1] was 92 µM (inactive); in test [2] it was > 100 µM (inactive); in test [3], > 100 µM (inactive); in [4], > 100 µM (inactive); in [5], > 100 µM (inactive); in test [6] it was > 100 µM (inactive). Besides, the GI50 in test [7] was > 100 µM (inactive); in test [8], > 100 µM (inactive); in test [9], above 100 µM; in [10], > 100 µM (inactive); in test [11], 32.1 µM (inactive); in test [12] it was > 100 µM (inactive). In addition, the GI50 in test [13] was > 100 µM (inactive); in [14] it was 65.5 µM (inactive); in test [15], > 100 µM (inactive).

On to `CC(Cc1ccccc1)N(C)Cc1nc(C2CCC([N+](=O)[O-])O2)no1` (stereo unspecified), for which the GI50 is 14.8 µM (inactive) in [1]; 11.5 µM (inactive) in test [2]; 6.49 µM (inactive) in test [3]; 13.5 µM (inactive) in [4]; 8.47 µM (inactive) in test [16]; 19.5 µM (inactive) in test [5]. In addition, the GI50 in [6] is 3.19 µM (inactive); in [7], 16.7 µM (inactive); in [8], 12.2 µM (inactive); in test [9], 2.17 µM; in test [10], 21.3 µM (inactive); in test [11] it was 10.3 µM (inactive). The GI50 is 15.6 µM (inactive) in test [12], 12.4 µM (inactive) in test [13], 2.46 µM (inactive) in test [14] and 24.5 µM (inactive) in test [15].

On to `C1=C2C3=[N+](CCCC3)CC2Cc2sccc21` (stereo unspecified), for which the GI50 is 57.7 µM (inactive) in [2]; > 100 µM (inactive) in test [3]; > 100 µM (inactive) in test [4]; 42.5 µM (inactive) in [16]; > 100 µM (inactive) in test [5]; > 100 µM (inactive) in test [6]. Moreover, the GI50 in [8] was 86.9 µM (inactive); in test [9], above 100 µM; in test [10], 99.8 µM (inactive); in [11] it was > 100 µM (inactive); in test [17], 45.6 µM (inactive); in [12], > 100 µM (inactive). For the same molecule, the GI50 in test [13], in test [14] and in [15] was > 100 µM (inactive) each time.

In the case of `CCOc1ccc2ccccc2c1NC1=NCCO1`, the GI50 in test [1] is 19.5 µM (inactive); in test [2] it was 44.9 µM (inactive); in test [3], 19.9 µM (inactive); in [4], > 100 µM (inactive); in test [16] it was 26.8 µM (inactive); in test [5] it was 27.5 µM (inactive). For the same molecule, the GI50 in test [7] is 31.5 µM (inactive); in test [8] it was 29.6 µM (inactive); in test [9], above 100 µM; in test [10], 15.3 µM (inactive); in [11], 34.6 µM (inactive); in test [12], > 100 µM (inactive). In addition, the figures for the GI50 in [13], in test [14] and in test [15] were > 100 µM (inactive), 23.1 µM (inactive) and 39.5 µM (inactive), respectively.

For `COC(=O)[C@H](Cc1c[nH]c2ccccc12)NC(=O)OCC1OC(n2cc(C)c(=O)[nH]c2=O)CC1N=[N+]=[N-]` (stereo partly specified), the GI50 in [1] was > 100 µM (inactive); in test [2] it was 31.8 µM (inactive); in [3] it was > 100 µM (inactive); in test [4] it was > 100 µM (inactive); in test [16] it was > 100 µM (inactive); in test [5], 33.6 µM (inactive). The GI50 was 98.6 µM (inactive) in [6]; > 100 µM (inactive) in test [8]; above 100 µM in [9]; > 100 µM (inactive) in [10]; 84.5 µM (inactive) in [11]; > 100 µM (inactive) in test [17]. In addition, the GI50 in test [12] is > 100 µM (inactive); in test [13] it was > 100 µM (inactive); in test [14], 46.3 µM (inactive); in [15] it was > 100 µM (inactive).

Turning to `CN(C)CCCNC(=O)c1cc(NC(=O)CCCn2c3ccccc3c3ccccc32)cn1C`, the GI50 in test [1] was 17.1 µM (inactive); in test [2] it was 16.7 µM (inactive); in test [3] it was 22.5 µM (inactive); in test [4] it was 22.5 µM (inactive); in test [16] it was 43.1 µM (inactive); in test [5], 11.4 µM (inactive). In addition, the GI50 in test [6] was 31 µM (inactive); in test [8], 25 µM (inactive); in test [9], 45.7 µM; in [10] it was 2.13 µM (inactive); in test [11], 43 µM (inactive); in [17] it was 20.7 µM (inactive). The GI50 in test [12] was 73.6 µM (inactive); in test [13], > 100 µM (inactive); in test [15], > 100 µM (inactive).

With `CCOC(=O)C(NC(=O)CC)(Nc1cc(C)on1)C(F)(F)F` (stereo unspecified), the GI50 in [1], in test [2], in test [3], in test [4], in test [5] and in [6] was > 100 µM (inactive) throughout. Besides, the GI50 in test [7] was > 100 µM (inactive); in test [8], > 100 µM (inactive); in test [9], above 100 µM; in [11], > 100 µM (inactive); in test [17], > 100 µM (inactive); in test [12], > 100 µM (inactive). The GI50 in test [14] was > 100 µM (inactive).

Consider `Cc1ccc(Nc2nc(N)nc3c2ncn3C2OC(CO)C(O)C2O)cc1` (stereo unspecified), for which the GI50 in [1], in test [2], in test [3], in test [4], in test [16] and in test [5] was > 100 µM (inactive) throughout. For the same molecule, the GI50 is > 100 µM (inactive) in test [6]; > 100 µM (inactive) in test [8]; above 100 µM in test [9]; > 100 µM (inactive) in [10]; > 100 µM (inactive) in test [11]; > 100 µM (inactive) in test [17]. In addition, the GI50 in [12], in test [13] and in [15] was > 100 µM (inactive) throughout.

Consider `N=C(N)c1ccc(/N=N/c2c(O)ccc3cc(O)ccc23)cc1`, for which the GI50 in [1], in [2], in test [3], in [4], in test [16] and in test [5] was > 100 µM (inactive) throughout. Further, the GI50 in test [7] is 24.7 µM (inactive); in test [8] it was > 100 µM (inactive); in test [9] it was above 100 µM; in test [10], > 100 µM (inactive); in [17], > 100 µM (inactive); in test [12], > 100 µM (inactive). In addition, the GI50 in test [14] and in [15] was > 100 µM (inactive) in each case.

Regarding `CCOC(=O)CNc1nc(=O)c2c(=O)oc(Cl)cc2o1`, the GI50 was 27.1 µM (inactive) in test [2]; 13.6 µM (inactive) in test [4]; 17.6 µM (inactive) in test [16]; 12.6 µM (inactive) in test [5]; 10.5 µM (inactive) in [6]; 33.3 µM (inactive) in test [8]. The GI50 in [9] is 10 µM; in test [10], 3.69 µM (inactive); in test [11], 11 µM (inactive); in test [17], 13.2 µM (inactive); in test [12] it was 18.5 µM (inactive); in test [13], 29 µM (inactive). In addition, the GI50 was 19.3 µM (inactive) in [14] and > 100 µM (inactive) in [15].

For the molecule `CCN(CC)c1c(C(C)(C)C)c(=O)n2ccsc2c1OC(C)=O`, the GI50 in test [1] was 13.8 µM (inactive); in test [2], 18.1 µM (inactive); in test [3] it was 29.4 µM (inactive); in test [4], 19.8 µM (inactive); in test [16] it was 15.2 µM (inactive); in [5], 17.8 µM (inactive). Besides, the GI50 in test [6] was 17.4 µM (inactive); in test [8], 16.6 µM (inactive); in test [9], 16.5 µM; in test [10] it was 17.4 µM (inactive); in test [11], 15 µM (inactive); in test [17], 11.2 µM (inactive). The GI50 in test [12] is 15.8 µM (inactive); in test [13], 19.9 µM (inactive); in test [14] it was 22.9 µM (inactive); in test [15] it was 18.2 µM (inactive).

As to `CC1C2(C)OC(=N)C(C#N)(C(C)O2)C1(C#N)C#N` (stereo unspecified), the GI50 was 13.1 µM (inactive) in test [2]; 14.1 µM (inactive) in test [3]; 36.8 µM (inactive) in test [4]; 36 µM (inactive) in test [5]; 19.5 µM (inactive) in test [6]; > 10 µM (inactive) in test [8]. The GI50 is 15.5 µM in test [9]; 16.9 µM (inactive) in [10]; > 100 µM (inactive) in test [11]; 31.8 µM (inactive) in [17]; 30.5 µM (inactive) in [12]; 25.7 µM (inactive) in test [13]. Also, the GI50 is 29.4 µM (inactive) in test [14] and > 100 µM (inactive) in test [15].

As to `COc1cccc(-c2ccc3c4c2O[C@H]2c5[nH]c6ccccc6c5C[C@@]5(O)[C@@H](C3)N(CC3CC3)CC[C@]425)c1`, the GI50 in test [1] is 2.18 µM (inactive); in test [2] it was 1.94 µM (inactive); in test [3], 1.38 µM (inactive); in test [4], 1.72 µM (inactive); in test [16] it was 1.71 µM (inactive); in [5] it was 0.82 µM (active). In addition, the GI50 is 1.72 µM (inactive) in [6]; 1.76 µM (inactive) in test [7]; 2.05 µM (inactive) in test [8]; 1.84 µM in [9]; 1.37 µM (inactive) in test [10]; 7.08 µM (inactive) in test [12]. Also, the GI50 in test [13] was 2.54 µM (inactive); in test [14], 1.49 µM (inactive).

On to `O=c1c2ccc(Cl)cc2oc2c(CNc3ccc(S(=O)(=O)Nc4nccs4)cc3)cccc12`, for which the GI50 in [1], in [2], in test [4], in test [16], in [5] and in [6] was > 100 µM (inactive) throughout. Further, the GI50 in [7] was > 100 µM (inactive); in test [8] it was > 100 µM (inactive); in test [9], above 100 µM; in test [10], 31.2 µM (inactive); in test [17], > 100 µM (inactive); in [12] it was > 100 µM (inactive). Besides, the GI50 in [13] and in test [15] was > 100 µM (inactive) in each case.

The record behind these values is ChEMBL document CHEMBL1201862, “PubChem BioAssay data set” (2004).
